Results on 31 molecules are retold here after PubChem BioAssay (NCI).

Several values for one entry are separate records, joined by “and”; a condition that tells them apart may be missing. Equal values may be shown once.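 Protocol summary: plate cells (96-well), add compound at 5 concentrations, incubate 48 h, interpolate endpoints linearly. The concentration for 50% growth inhibition is given as GI50. TGI marks complete inhibition of growth.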

Some test systems named below: DMS 114 small cell lung; DMS 273 small cell lung; KM20L2 colon; SNB-78 CNS; DLD-1 colon; HOP-18 NSCLC; RXF-631 renal; MDA-N; XF 498 CNS; P388 leukemia; P388/ADR leukemia; SN12K1 renal.
Holding throughout (experiment): NCI tumour cell line growth inhibition, 48 h

For `O=c1[nH]c(C2CCCCC2)nc2cc(Cl)ccc12`, the TGI with DMS 114 small cell lung, in the test on DMS 273 small cell lung, with KM20L2 colon and in the test on SNB-78 CNS was > 100 µM each time.

In the case of `Cc1ccccc1C(C#N)/C(=N/NC(=O)C(=O)NN)C(=O)Nc1cccc(C(F)(F)F)c1` (stereo not given), the TGI with DLD-1 colon, with DMS 114 small cell lung, in the test on DMS 273 small cell lung, in the test on HOP-18 NSCLC, in the test with KM20L2 colon and in the test on RXF-631 renal was > 100 µM throughout. Also, the TGI in the test with SNB-78 CNS was > 100 µM.

In the case of `CC(C)(C)C1CCN(C(=O)c2ccccc2)CC1`, the TGI in the test on DLD-1 colon was > 100 µM; in the test with DMS 114 small cell lung, 98.8 µM; with DMS 273 small cell lung, > 100 µM; in the test with HOP-18 NSCLC, > 100 µM; in the test with KM20L2 colon it was > 100 µM; in the test with SNB-78 CNS, > 100 µM.

`O=c1nc2[nH]nc(-c3ccccc3)c2n[nH]1`: the TGI with DLD-1 colon, in the test on DMS 114 small cell lung, with DMS 273 small cell lung, in the test with KM20L2 colon and with SNB-78 CNS was > 100 µM in each case.

`O=CN/C=C/c1ccccc1O`: the TGI in the test on DLD-1 colon, in the test on DMS 114 small cell lung, in the test with DMS 273 small cell lung, with HOP-18 NSCLC, in the test with KM20L2 colon and in the test on SNB-78 CNS was > 100 µM in each case.

Regarding `O=S(=O)(c1ccccc1)C1CN(Cc2ccccc2)CCN(Cc2ccccc2)C1`, the TGI was 84.7 µM in the test with DLD-1 colon; > 100 µM with DMS 114 small cell lung; > 100 µM in the test with DMS 273 small cell lung; > 100 µM in the test with KM20L2 colon; 59.5 µM with MDA-N; 63 µM in the test on XF 498 CNS.

As for `N=C1N=Nc2nc(C3(c4nc5n(c4O)C(=N)N=N5)Cc4ccccc4C3=O)c(O)n21` (stereo not given), the TGI with MDA-N was > 100 µM.

`COC(=O)C12OCC34C(CC5C(C)=CC(=O)C(O)C5(C)C3C(O)C1O)OC(=O)C(OC(=O)CC(C)C)C24` (stereo not given): the GI50 with DLD-1 colon was 0.0633 µM and 0.05 µM; in the test on DMS 114 small cell lung it was 0.133 µM; with HOP-18 NSCLC, 0.00907 µM and 0.0441 µM and 0.05 µM; in the test on KM20L2 colon it was 0.0479 µM and 0.05 µM; in the test with P388 leukemia it was 0.05 µM; in the test on P388/ADR leukemia it was 0.0657 µM. The GI50 with SN12K1 renal was 0.000382 µM; in the test with SNB-78 CNS, 0.0748 µM and 0.05 µM; with XF 498 CNS, 0.041 µM and 0.05 µM. The TGI is 0.0463 µM and 0.274 µM and 0.219 µM in the test on HOP-18 NSCLC; 0.00503 µM with MDA-N; 0.00272 µM in the test on SN12K1 renal.

Take `COC(=O)c1cc(O)ccc1NC(=O)c1ccc(O)cc1`: the TGI with DLD-1 colon, with DMS 114 small cell lung, with HOP-18 NSCLC, in the test on KM20L2 colon, in the test with RXF-631 renal and with SNB-78 CNS was > 100 µM in each case. For the same molecule, the TGI with XF 498 CNS is > 100 µM.

As for `COc1cc([C@@H]2c3cc4c(cc3[C@@H](NC(=O)c3ccc([N+](=O)[O-])cc3)C3COC(=O)[C@@H]32)OCO4)cc(OC)c1O` (stereo not given in full), the TGI in the test on DLD-1 colon was 11.3 µM; in the test on DMS 114 small cell lung, 2.35 µM; in the test with DMS 273 small cell lung, 3.54 µM; in the test on HOP-18 NSCLC it was > 100 µM; with KM20L2 colon, 3.73 µM; in the test on RXF-631 renal it was 4.48 µM. The TGI in the test with SNB-78 CNS came to 75.5 µM; in the test on XF 498 CNS, 0.964 µM.

As for `[O-][N+]1=C(c2ccccc2)COc2ccccc21`, the TGI in the test on DLD-1 colon, in the test on DMS 114 small cell lung, in the test with DMS 273 small cell lung, in the test with HOP-18 NSCLC, with KM20L2 colon and in the test on RXF-631 renal was > 100 µM throughout. In the test with SNB-78 CNS, the TGI is > 100 µM.

On to `C/C(CC(=O)Nc1ccc([N+](=O)[O-])cc1)=N/N=C(N)N`, for which the TGI in the test on DLD-1 colon, in the test on DMS 114 small cell lung, with DMS 273 small cell lung, in the test with KM20L2 colon, in the test with RXF-631 renal and with SNB-78 CNS was > 100 µM in each case. The TGI with XF 498 CNS was > 100 µM.

As to `NS(=O)(=O)c1ccc(NCc2cnc3ccccc3c2)cc1`, the TGI in the test on MDA-N is > 100 µM.

For `Cc1cc2c(=O)cc(-c3ccc(C(=O)O)cc3)oc2c(C(=O)O)c1C`, the TGI in the test on DLD-1 colon, in the test with DMS 114 small cell lung, with DMS 273 small cell lung, in the test with HOP-18 NSCLC, with KM20L2 colon and in the test on RXF-631 renal was > 100 µM each time. In addition, the TGI in the test on SNB-78 CNS was > 100 µM.

On to `O=C(O)C#Cc1ccc([N+](=O)[O-])cc1`, for which the TGI with MDA-N is > 100 µM.

As for `O=C1[C@H](c2ccccc2)C2c3ccccc3CCN12` (stereo not given in full), in the test with MDA-N, the GI50 was > 100 µM and the TGI was > 100 µM.

For `Clc1ccc(CCn2cncn2)c(Cl)c1`, the TGI in the test on DLD-1 colon, in the test on DMS 114 small cell lung, with DMS 273 small cell lung, with HOP-18 NSCLC, in the test with KM20L2 colon and in the test on SNB-78 CNS was > 100 µM each time.

Consider `Cc1cc(NC(=O)C(=O)Cc2nc3ccccc3s2)ccc1Cl`, for which the TGI with DLD-1 colon, in the test on DMS 114 small cell lung, in the test with DMS 273 small cell lung, with HOP-18 NSCLC, in the test with KM20L2 colon and in the test with MDA-N was > 100 µM throughout. The TGI in the test on SNB-78 CNS and in the test with XF 498 CNS was > 100 µM in each case.

For the molecule `Cn1c(-c2ccccc2)c/c(=N\NS(C)(=O)=O)c2cc(S(=O)(=O)O)ccc21`, the TGI in the test on DLD-1 colon, with DMS 114 small cell lung, with DMS 273 small cell lung, in the test with HOP-18 NSCLC, in the test with KM20L2 colon and in the test on SNB-78 CNS was > 100 µM in each case. In addition, in the test with XF 498 CNS, the TGI is > 100 µM.

For `C=C1CCC2C(C)(CO)C(O)CCC2(C)C1CC(O)C1=CCOC1=O` (stereo not given), the TGI in the test on DLD-1 colon, with DMS 114 small cell lung, in the test with DMS 273 small cell lung, in the test with HOP-18 NSCLC, in the test with KM20L2 colon and with RXF-631 renal was > 100 µM in each case.

With `O=[N+]([O-])c1ccc(C2N3CCCCC3[C@@H]3c4[nH]c5ccccc5c4CCN23)cc1` (stereo not given in full), the TGI is 57.7 µM with DLD-1 colon; 22 µM in the test on DMS 114 small cell lung; > 100 µM in the test with DMS 273 small cell lung; > 100 µM in the test with HOP-18 NSCLC; 24.5 µM in the test on KM20L2 colon; > 100 µM with RXF-631 renal. Besides, the values for the TGI with SNB-78 CNS and in the test on XF 498 CNS were 21.6 µM and 33.9 µM, respectively.

As to `O=C(CCc1cc(-c2ccco2)n(-c2ccc([N+](=O)[O-])cc2[N+](=O)[O-])n1)Nc1ccccc1`, the TGI with DLD-1 colon, in the test with DMS 114 small cell lung, in the test on DMS 273 small cell lung, with KM20L2 colon, in the test with RXF-631 renal and with SNB-78 CNS was > 100 µM throughout. Further, in the test with XF 498 CNS, the TGI is > 100 µM.

With `COC(=O)/C(Cl)=C1/CC1COCc1ccccc1` (stereo not given), the TGI is 45.8 µM with DLD-1 colon; 81.2 µM in the test with DMS 114 small cell lung; 54.9 µM in the test on DMS 273 small cell lung; > 100 µM with KM20L2 colon; > 100 µM with SNB-78 CNS; 58.4 µM in the test on XF 498 CNS.

Take `Cn1c2ccccc2c(=S)c2cc(NC(=O)CCCCC(=O)Nc3ccc4c(c3)c(=S)c3ccccc3n4C)ccc21`: the TGI in the test on MDA-N was > 100 µM.

As for `Cc1ccc(S(=O)(=O)NC(=O)Nc2nc(Cl)cc(Cl)n2)cc1`, the TGI in the test on DLD-1 colon, in the test on DMS 114 small cell lung, in the test on HOP-18 NSCLC, in the test on KM20L2 colon, in the test on RXF-631 renal and with SNB-78 CNS was > 100 µM each time. For the same molecule, the TGI in the test on XF 498 CNS is > 100 µM.

As to `CNC(=S)N/N=C(/C)CCC/C(C)=N/NC(=S)NC`, in the test with MDA-N, the TGI was > 100 µM.

`O=C1/C(=c2\c3ccccc3n3c(=O)c4ccccc4nc23)Nc2ccccc21` came in with a TGI in the test with MDA-N of 33.6 µM.

Turning to `O=C(Cc1nc2ccccc2s1)NC12CC3CC(CC(C3)C1)C2`, the TGI in the test with DLD-1 colon, in the test with DMS 273 small cell lung, in the test on KM20L2 colon, with RXF-631 renal and in the test with SNB-78 CNS was > 100 µM in each case.

Regarding `COC(=O)CCC(=O)C(C#N)c1ccc(Cl)cc1Cl` (stereo not given), the TGI with DLD-1 colon, in the test on DMS 273 small cell lung, with KM20L2 colon, with RXF-631 renal, with SNB-78 CNS and in the test on XF 498 CNS was > 100 µM each time.

`C/C(CN1C(=O)c2ccccc2C1=O)=N\NS(C)(=O)=O`: the TGI in the test on DLD-1 colon, in the test on DMS 114 small cell lung, in the test with DMS 273 small cell lung, in the test on HOP-18 NSCLC, in the test on KM20L2 colon and in the test with SNB-78 CNS was > 100 µM throughout. Further, the TGI with XF 498 CNS is > 100 µM.

As for `N#Cc1ccccc1/C=N/O`, the TGI was > 100 µM with DLD-1 colon; > 100 µM in the test on DMS 114 small cell lung; > 55.6 µM in the test with DMS 273 small cell lung; > 100 µM with HOP-18 NSCLC; > 100 µM with KM20L2 colon; > 100 µM in the test on SNB-78 CNS. For the same molecule, in the test with XF 498 CNS, the TGI is > 100 µM.
